One series relates to firefly luciferase. In words: Inhibition of firefly luciferase in cell lysates. It is filed as biochemical. As to conditions: compounds 10 μM added to lysates of cells treated with 100 nM DHT; data not shown. As for the experimental part:
AIZ-AR cells were treated with 100 nM DHT for 24 hours. Cell lysates containing firefly luciferase, having a catalytic activity corresponding to model ligand-treated cells, were isolated. Tested compounds (10 μM) were added to cell lysates and luciferase activity was measured.

Series [1] addresses androgen receptor. The arrangement: method as in Sedlak et al. The conditions noted are these: published data; ref Sedlak et al.; cited from earlier work.
The next series is described as follows: in vitro. In kind it is cell-based. The conditions noted are these: human.
In series [2] the target is T1, human androgen receptor (Homo sapiens, UniProt P10275). In words: Gene reporter assay in AIZ-AR cells, antagonist mode with DHT (100 nM). It is filed as cell-based. In general terms: A reporter such as luciferase makes a cellular process visible.
Description: (§1) AIZ-AR cells were seeded in 96-well plates at density 5x10^4 cells per well. […] After the treatments, cells were lysed and luciferase activity was measured in 96-well plate format using Tecan Infinite M2000 plate luminometer.
(§2) Dose-response analyses assays were performed in two different experimental layouts. […] Where appropriate, IC50 (half maximal inhibitory concentration) values were calculated.
Series [3] has as its target T1, human androgen receptor. Nature of the series: Gene reporter assay in AIZ-AR cells, agonist mode (luciferase). In kind it is cell-based.
Description: as §1, §2
The target in series [4] is androgen receptor. Also on record: method as in Wilkinson et al. The conditions noted are these: published data; ref Wilkinson et al.; cited from earlier work.
Series [5] concerns the target T1, human androgen receptor. In words: Gene reporter assay in AIZ-AR cells, antagonist mode with testosterone (10 nM). In kind it is cell-based.
Description: as §1, §2
Series [6] relates to androgen receptor. As to conditions: cited from earlier work.

Read-outs that look alike come from different tables or passages of the source.

T1 sequence (P10275 whole entry): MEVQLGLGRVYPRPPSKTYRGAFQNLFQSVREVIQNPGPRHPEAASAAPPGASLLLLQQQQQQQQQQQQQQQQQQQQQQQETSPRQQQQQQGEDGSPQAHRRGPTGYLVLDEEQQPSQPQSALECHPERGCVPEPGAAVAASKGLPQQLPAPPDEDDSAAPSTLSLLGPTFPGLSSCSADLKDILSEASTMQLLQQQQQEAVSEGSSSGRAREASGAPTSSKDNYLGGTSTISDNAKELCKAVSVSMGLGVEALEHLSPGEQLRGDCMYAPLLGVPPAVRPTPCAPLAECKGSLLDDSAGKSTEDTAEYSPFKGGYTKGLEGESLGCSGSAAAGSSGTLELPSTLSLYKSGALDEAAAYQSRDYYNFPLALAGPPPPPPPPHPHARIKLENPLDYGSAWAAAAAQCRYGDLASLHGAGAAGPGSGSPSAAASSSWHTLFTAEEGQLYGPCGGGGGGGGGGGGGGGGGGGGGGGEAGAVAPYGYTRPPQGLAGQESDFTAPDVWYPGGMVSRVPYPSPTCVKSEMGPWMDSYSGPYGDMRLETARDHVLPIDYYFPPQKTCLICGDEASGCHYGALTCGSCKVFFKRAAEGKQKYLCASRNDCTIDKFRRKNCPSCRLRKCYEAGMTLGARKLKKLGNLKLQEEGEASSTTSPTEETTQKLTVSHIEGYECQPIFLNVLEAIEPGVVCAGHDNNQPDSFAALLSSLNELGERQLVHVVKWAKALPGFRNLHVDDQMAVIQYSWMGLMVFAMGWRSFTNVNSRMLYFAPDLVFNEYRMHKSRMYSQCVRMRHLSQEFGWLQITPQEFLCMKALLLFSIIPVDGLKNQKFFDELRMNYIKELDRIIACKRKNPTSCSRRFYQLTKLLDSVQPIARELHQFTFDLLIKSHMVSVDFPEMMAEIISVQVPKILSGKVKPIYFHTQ
Description for in vitro: AIZ-AR cells were seeded in 96-well plates at density 5x10^4 cells per well. […] Following the incubation, MTT assay was measured spectrophotometrically at 540 nm using Tecan Infinite M2000 plate luminometer.

For orientation: viability means a read-out of living cells in per cent, often relative to untreated cells. Take `O=c1c(-c2ccc(O)cc2)coc2cc(O)cc(O)c12` [Genistein, genistein]: the “influence on firefly luciferase catalytic activity” value in the series with firefly luciferase is given as “significantly influenced luciferase activity”. Further, the “Literature Log EC50” value on androgen receptor [1] is reported as over -5.00. Moreover, in “in vitro”, the viability at 24 h, 0.1 nM turned out to be 100%; the viability at 24 h, 1 nM came to 96.5 ± 2.4%; the viability at 24 h, 10 nM turned out to be 96.7 ± 3.3%; the viability at 24 h, 100 nM is 103 ± 7.5%. Further, in “in vitro”, the viability at 24 h, 1 μM was determined as 103 ± 7.5% and the viability at 24 h, 10 μM amounted to 120 ± 6.4%. Also, the agonist-induced luciferase activity entry on human androgen receptor [2] (antagonist mode, 10^-5 M, probably due to luciferase inhibition) was “massive drop”. In addition, on human androgen receptor [2] (with DHT (100 nM) or testosterone (10 nM) as agonist, 24 h), the “effect on agonist-induced luciferase activity in antagonist mode” value is “strongly augmented agonist-induced luciferase activity”. The “Log EC50” value on human androgen receptor [3] (Clone 8, 24 h) is on record as -6.62 ± 0.42. For the same molecule, on human androgen receptor [3] (Clone 14, 24 h), the “Log EC50” value is on record as -6.79 ± 0.23. Moreover, the “Literature Log EC50” value on androgen receptor [4] is recorded as over -5.00.

In the case of `CC/C(=C(\c1ccc(O)cc1)c1ccc(OCCN(C)C)cc1)c1ccccc1` [4-hydroxytamoxifen], at androgen receptor [1], the “Literature Log EC50” value is listed as over -5.00. In the series “in vitro”, the viability at 24 h, 0.1 nM worked out at 100%; the viability at 24 h, 1 nM was determined as 101.8 ± 1%; the viability at 24 h, 10 nM is 100 ± 5.4%; the viability at 24 h, 100 nM is 104 ± 4.4%. Moreover, in “in vitro”, the viability at 24 h, 1 μM amounted to 106 ± 3.8% and the viability at 24 h, 10 μM is 9.2 ± 7.7%. In addition, the “Log IC50 (DHT 100nM)” value at human androgen receptor [2] (Clone 8, antagonist mode, 24 h) was over -5.00. At human androgen receptor [2] (Clone 14, antagonist mode, 24 h), the “Log IC50 (DHT 100nM)” value is over -5.00. In addition, the “Log EC50” value at human androgen receptor [3] (Clone 8, 24 h) is recorded as over -5.00. The “Log EC50” value on human androgen receptor [3] (Clone 14, 24 h) was over -5.00. Besides, the “Literature Log EC50” value at androgen receptor [4] is given as over -5.00. The “Log IC50 (Testosterone 10 nM)” value on human androgen receptor [5] (Clone 8, 24 h) was over -5.00. Further, at human androgen receptor [5] (Clone 14, 24 h), the “Log IC50 (Testosterone 10 nM)” value was over -5.00.

`C[C@]12CCC(=O)C=C1CC[C@@H]1[C@@H]2[C@@H](O)C[C@@]2(C)[C@H]1CC[C@]2(O)C(=O)CO` [Cortisol, cortisol]: the “Literature Log EC50” value is over -5.00 on androgen receptor [1] and -8.22 at androgen receptor [4]. Also, the viability at 24 h, 10 μM in the series “in vitro” (log c -5, 24 h, MTT, read-out: % of viability) was 105 ± 10.4%. In the series “in vitro” (log c -6, 24 h, MTT, read-out: % of viability), the viability at 24 h, 1 μM was 107 ± 12.3%. In the series “in vitro” (log c -7, 24 h, MTT, read-out: % of viability), the viability at 24 h, 100 nM was 107 ± 13.2%. The viability at 24 h, 10 nM in the series “in vitro” (log c -8, 24 h, MTT, read-out: % of viability) is 106 ± 9.1%. Also, the viability at 24 h, 1 nM in the series “in vitro” (log c -9, 24 h, MTT, read-out: % of viability) was 109 ± 4.1%. The viability at 24 h, 0.1 nM in “in vitro” (log c -10, 24 h, MTT, read-out: % of viability) was 100%. Further, on human androgen receptor [3], the “potency weaker as compared to androgens” value is 2–3 orders of magnitude. Moreover, the “effect on luciferase activity in agonist mode” value on human androgen receptor [3] (24 h) is “induced luciferase activity”. For the same molecule, the “Log EC50” value on human androgen receptor [3] (Clone 8, 24 h) is -6.35 ± 0.11; at human androgen receptor [3] (Clone 14, 24 h), -6.49 ± 0.04.

`C[C@]1(O)CC[C@H]2[C@@H]3CCC4=CC(=O)CCC4=C3C=C[C@@]21C` [R1881]: the “Response of AR-LUX cell line (induction)” value in the series on androgen receptor [6] is on record as “maximally five-fold induction”.

The values are drawn from article PMC4374931 (PLoS ONE, 2015).
